For test [1], the target named is T1, Maltase Glucoamylase (MGA) (Homo sapiens, UniProt O43451). The experiment in a line: Inhibition of recombinant human maltase glucoamylase (MGA), maltose substrate, glucose oxidase readout. It counts as biochemical. The note with it: for Ki: maltose substrate, 100 mM MES buffer pH 6.5, 37° C., read-out: Ki value against recombinant human maltase glucoamylase (MGA); for IC50: read-out: IC50 value against recombinant human MGA. How it is done:
Enzyme Activity Assay. Analysis of MGA inhibition was performed using maltose as the substrate, and measuring the release of glucose. Reactions were carried out in 100 mM MES buffer pH 6.5 at 37° C. for 15 min. The reaction was stopped by boiling for 3 min. 20 μL aliquots were taken and added to […] of glucose oxidase assay reagent (Sigma) in a 96-well plate. Reactions were developed for 1 hour and absorbance was measured at 450 nm to determine the amount of glucose produced by MGA activity in the reaction. One unit of activity is defined as the hydrolysis of one […] of maltose per minute. All reactions were performed in triplicate and absorbance measurements were averaged to give a final result.
The program GraFit 4.0.14 was used to fit the data to the Michaelis-Menten equation and estimate the kinetic parameters, Km and Vmax, of the enzyme. Ki values for each inhibitor were determined by measuring the rate of maltose hydrolysis by MGA at varying inhibitor concentrations. Data were plotted in Lineweaver-Burk plots (1/rate vs. 1/[substrate]) and Ki values were determined by the equation Ki=Km[I]/(Vmax)m−Km, where “m” is the slope of the line. The Ki reported for each inhibitor was estimated by averaging the Ki values obtained from each of the different inhibitor concentrations.
Target sequence in this assay (O43451 87-954 limits assumed): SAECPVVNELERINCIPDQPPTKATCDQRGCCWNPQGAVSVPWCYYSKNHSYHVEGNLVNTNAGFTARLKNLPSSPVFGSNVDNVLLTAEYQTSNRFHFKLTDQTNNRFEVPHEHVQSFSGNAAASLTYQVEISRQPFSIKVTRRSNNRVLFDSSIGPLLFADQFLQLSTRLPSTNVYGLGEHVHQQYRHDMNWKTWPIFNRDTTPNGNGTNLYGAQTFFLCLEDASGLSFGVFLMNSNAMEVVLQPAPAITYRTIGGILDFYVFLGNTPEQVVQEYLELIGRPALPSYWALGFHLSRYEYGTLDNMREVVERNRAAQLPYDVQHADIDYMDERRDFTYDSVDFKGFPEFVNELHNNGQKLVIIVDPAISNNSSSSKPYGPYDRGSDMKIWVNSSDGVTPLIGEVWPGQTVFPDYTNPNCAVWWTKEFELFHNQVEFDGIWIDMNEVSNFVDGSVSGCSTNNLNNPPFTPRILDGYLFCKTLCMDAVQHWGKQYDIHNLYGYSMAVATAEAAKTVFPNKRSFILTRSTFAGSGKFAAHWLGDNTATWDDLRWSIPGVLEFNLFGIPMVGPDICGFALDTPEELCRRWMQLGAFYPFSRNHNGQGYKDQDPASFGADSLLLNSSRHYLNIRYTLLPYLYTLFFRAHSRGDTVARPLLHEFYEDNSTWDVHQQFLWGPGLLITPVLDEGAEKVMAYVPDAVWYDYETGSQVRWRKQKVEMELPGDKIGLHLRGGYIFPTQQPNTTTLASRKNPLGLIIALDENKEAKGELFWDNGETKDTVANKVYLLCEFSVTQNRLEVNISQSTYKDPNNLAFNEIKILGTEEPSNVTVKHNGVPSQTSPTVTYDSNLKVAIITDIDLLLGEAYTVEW

Test [2] deals with T2, glucoamylase G2 form from Aspergillus niger (Aspergillus niger, UniProt P69328).
T2 construct: purchased Novo Nordisk, Bagsvaerd, Denmark
The experiment in a line: Inhibition of glucoamylase G2-catalyzed hydrolysis of maltose. The format is biochemical. As to the method:
The glucoamylase G2 form from Aspergillus niger was purified from a commercial enzyme (Novo Nordisk, Bagsvaerd, Denmark) as described.^19,20 The initial rates of glucoamylase G2-catalyzed hydrolysis of maltose was tested with 1 mM maltose as substrate in 0.1 M sodium acetate pH 4.5 at 45° C. using an enzyme concentration of 7.0×10^−8 M and five inhibitor concentrations in the range 1 μm-5 mM. The effect of the inhibition on rates of substrate hydrolysis were compared for the different compounds.

For test [3], the target named is T3, porcine pancreatic α-amylase (PPA) (Sus scrofa, UniProt P00690).
T3 construct: purchased Sigma
T3 sequence (P00690 16-511): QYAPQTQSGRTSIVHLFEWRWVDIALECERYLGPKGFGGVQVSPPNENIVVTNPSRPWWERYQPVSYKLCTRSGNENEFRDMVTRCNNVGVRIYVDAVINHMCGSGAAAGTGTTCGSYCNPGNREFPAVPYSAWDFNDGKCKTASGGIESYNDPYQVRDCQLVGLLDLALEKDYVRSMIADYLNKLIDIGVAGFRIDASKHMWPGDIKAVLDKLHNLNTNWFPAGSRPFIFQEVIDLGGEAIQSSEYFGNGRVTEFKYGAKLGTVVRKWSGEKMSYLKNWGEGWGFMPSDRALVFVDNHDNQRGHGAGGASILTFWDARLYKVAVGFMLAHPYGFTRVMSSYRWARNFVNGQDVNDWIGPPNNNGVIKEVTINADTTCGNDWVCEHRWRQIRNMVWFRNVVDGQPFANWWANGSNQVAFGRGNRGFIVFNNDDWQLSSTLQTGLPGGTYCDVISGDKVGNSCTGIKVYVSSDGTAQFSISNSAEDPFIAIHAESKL
Kind of test: Inhibition of porcine pancreatic α-amylase activity towards DP17 amylose. The format is biochemical. An excerpt:
(§1) Porcine pancreatic α-amylase (PPA) and bovine serum albumin (BSA) were purchased from Sigma. Amylose EX-1 (DP17; average degree of polymerization 17) was purchased from Hayashibara Chemical Laboratories (Okayama, Japan). Recombinant barley α-amylase isozyme 1 (AMY1) was produced and purified as described.^23 An aliquot of the porcine pancreatic x-amylase (PPA) crystalline suspension (in ammonium sulfate) was dialyzed extensively against the assay buffer without BSA. The enzyme concentration was determined by aid of amino acid analysis as determined using an LKB model Alpha Plus amino acid analyzer. […] Six different final inhibitor concentrations were used in the range 1 μM-5 mM. The inhibitor was pre-incubated with enzyme for 5 min at 37° C. before addition of substrate.

For test [4], the target named is T4, Recombinant barley α-amylase isozyme 1 (AMY1) (Hordeum vulgare, UniProt P00693).
T4 construct: made in house
Kind of test: Inhibition of barley α-amylase isozyme 1 activity towards DP17 amylose. The format is biochemical.
Text: as §1

In the next test the test system is Sprague-Dawley rats. Kind of test: In vivo maltose gavage in catheterized rats: plasma glucose and insulin. Set-up: species or system rat. Particulars: maltose gavage 1000 mg/kg with 25 mg/kg drug. As to the method: Five week old Sprague-Dawley rats were housed singly under a 12:12-h light-dark photoperiod and given free access to water and rat chow (Purina rodent chow). After one week of acclimation, chronic indwelling catheters were implanted.
Animals were anesthetized with a combination of Ketamine-Xylazine-Butorphanol (0.1 ml/100 g im). Analgesic (Butorphenol, 1 mg/kg sc) was administered following recovery from anesthesia and the following morning. Antibiotic was administered by one dose sc and in the drinking water for 4 days post-operative (Baytril, 5 mg/kg sc, Bayer, Toronto, Canada; Baytril, 50 mg/ml: 0.36 ml solution in 250 ml drinking water). A sterile catheter (Intramedic PE-50 with ˜3 cm beveled Silastic tip) was placed in the left carotid artery and the distal end of the catheter was tunneled subcutaneously, exteriorized, and anchored at the nape of the neck. The catheters were protected from chewing by a stainless steel tether connected to a swivel system which allowed free movement of the animal and easy access to the catheter by the investigator.
The animals were allowed to recover for 1 week. Experiments were performed on conscious, unrestrained animals that had been fasted overnight by removal of chow from the cage hoppers at 2100. At 0800 the following morning animals were weighed and Atropine (0.05 mg/kg sc) was administered as a […]. At baseline, animals were administered a bolus of maltose by oral gavage (1000 mg/kg body weight) with or without drug (25 mg/kg body weight for all agents). Blood samples (0.1 mL) were taken via the implanted carotid line at -15 and -5 min for the baseline and at 7, 15, 30, 60, 90, 120, 210, 300 min.
Blood samples were kept on ice in microcentrifuge tubes and then were centrifuged. The plasma was stored at −20° C. until it was assayed. Plasma volume was triple replaced with heparinized saline (10u/mL), but red blood cells were not reinfused. Plasma glucose was assayed with the glucose oxidase method (Trinder RAICHEM Division of Hemagen Diagnostics, Inc. San Diego, Calif.). Plasma insulin concentrations were measured by rat insulin ELISA (Crystal Chem INC, Downers Grove, Ill.). Six experiments were performed for each treatment (control, Blintol, Acarbose, Salacinol).
All data are presented as means±SE. The significance of changes in plasma glucose and insulin were tested by two-way repeated-measures analysis of variance and were performed with the Statistical Analysis System for Windows (version 6.3, SAS Institute, Cary, N.C.). AUCs were compared using unpaired t-tests.

Test [5] has as its target T1, Maltase Glucoamylase (MGA). The experiment in a line: MGA activity in extracts of COS cells transfected with MGA5′ (maltase subunit) construct, maltose hydrolysis, glucose oxidase colorimetric assay. It counts as biochemical. Set-up: COS cells transfected with MGA5′ (maltase subunit clone 10) construct were used; expressed in transfected cells; host or cells: COS cells. The note with it: 5 μM concentration, COS cell extracts containing MGA; read-out: percent inhibition of the breakdown of maltose. As to the method: In the assays, COS cells transfected with MGA5′ (maltase subunit clone 10) construct were used. Activity measurements were performed with cell extracts containing MGA. Maltose hydrolysis was monitored by measurement of the glucose released by a glucose oxidase colorimetric assay. Inhibition of this hydrolysis was measured as a reduction in OD reading.
In practice, an OD reading in the absence of the inhibitor was recorded, followed by a reading in the presence of the inhibitor. The percent reduction in OD reading upon administering a candidate inhibitor (see Table 11) was then correlated with a percent inhibition for a given concentration.
Target sequence in this assay (O43451 356-737 limits assumed): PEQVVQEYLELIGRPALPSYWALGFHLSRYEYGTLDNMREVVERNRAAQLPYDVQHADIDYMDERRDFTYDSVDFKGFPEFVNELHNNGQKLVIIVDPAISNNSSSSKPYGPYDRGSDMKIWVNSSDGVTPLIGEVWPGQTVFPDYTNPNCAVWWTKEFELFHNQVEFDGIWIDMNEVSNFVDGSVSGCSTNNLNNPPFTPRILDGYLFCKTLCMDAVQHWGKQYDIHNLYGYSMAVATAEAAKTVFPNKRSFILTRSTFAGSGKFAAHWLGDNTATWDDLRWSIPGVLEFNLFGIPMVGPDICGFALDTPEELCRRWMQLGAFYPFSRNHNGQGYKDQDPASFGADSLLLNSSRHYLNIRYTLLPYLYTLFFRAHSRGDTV

Where [6] appears, read: read-out: Ki PPA (Porcine pancreatic α-amylase).
Where [7] appears, read: read-out: Ki AMY1 (Barley α-amylase).

Structures are written as SMILES. Counter-ions that a name gives are not always drawn. Like-named read-outs stand apart in the source and are kept apart here. Some results are limits rather than exact numbers.

T2 sequence (P69328 other isoform, or with tags, fused parts or gaps): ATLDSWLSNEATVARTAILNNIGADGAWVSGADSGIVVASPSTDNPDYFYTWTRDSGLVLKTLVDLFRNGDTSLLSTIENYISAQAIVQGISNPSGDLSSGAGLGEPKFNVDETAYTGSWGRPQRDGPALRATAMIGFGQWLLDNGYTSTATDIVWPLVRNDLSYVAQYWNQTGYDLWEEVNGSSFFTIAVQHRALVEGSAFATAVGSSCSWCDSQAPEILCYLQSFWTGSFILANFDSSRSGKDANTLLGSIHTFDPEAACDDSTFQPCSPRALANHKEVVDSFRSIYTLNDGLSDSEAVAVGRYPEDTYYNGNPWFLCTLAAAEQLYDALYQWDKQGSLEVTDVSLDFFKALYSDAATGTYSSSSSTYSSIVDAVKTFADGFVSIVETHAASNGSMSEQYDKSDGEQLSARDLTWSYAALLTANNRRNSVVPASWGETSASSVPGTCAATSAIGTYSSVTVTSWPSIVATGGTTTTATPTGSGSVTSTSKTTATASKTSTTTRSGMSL
T4 sequence (P00693 25-438): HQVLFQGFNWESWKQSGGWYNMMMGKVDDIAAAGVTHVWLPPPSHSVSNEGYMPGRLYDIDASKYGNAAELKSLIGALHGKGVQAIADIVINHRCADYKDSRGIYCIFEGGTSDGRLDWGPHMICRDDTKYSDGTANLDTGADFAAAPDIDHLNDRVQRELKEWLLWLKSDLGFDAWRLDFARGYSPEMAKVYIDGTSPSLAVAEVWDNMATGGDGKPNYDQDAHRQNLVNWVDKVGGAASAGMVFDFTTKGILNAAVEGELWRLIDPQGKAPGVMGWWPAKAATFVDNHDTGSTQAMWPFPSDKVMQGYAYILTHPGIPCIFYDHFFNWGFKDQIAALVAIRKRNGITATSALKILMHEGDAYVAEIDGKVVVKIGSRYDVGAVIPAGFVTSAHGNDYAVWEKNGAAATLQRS

Consider `O=S(=O)([O-])O[C@@H](CO)[C@H](O)C[S@+]1C[C@H](O)[C@H](O)[C@H]1CO` [Compound 234, 1,4-Dideoxy-1,4-[[(2S,3S)-2,4-dihydroxy-3-(sulfooxy)butyl]-(R)-episulfoniumylidene]-D-ribitol Inner Salt], for which the “inhibitory activity against recombinant human MGA (in words)” value (“inhibitory activity” for short) in test [1] is “not effective inhibitors”. As for `O=S(=O)([O-])O[C@H](CO)[C@@H](O)C[S@@+]1C[C@H](O)[C@@H](O)[C@@H]1CO`, the Ki in test [2] is 2170 µM; in test [3] (setting [6]), greater than 5000 µM; in test [4] (setting [7]) it was greater than 5000 µM. With `O=S(=O)(O)OC(C(O)CN1CC(O)C(O)C1CO)C(O)C(O)CO` (single isomer, unassigned) [Compound 193], the Ki in test [1] turned out to be 26 µM. Take `C[C@H]1O[C@H](O[C@H]2[C@H](O)[C@@H](O)[C@@H](O[C@H]3[C@H](O)[C@@H](O)C(O)O[C@@H]3CO)O[C@@H]2CO)[C@H](O)[C@@H](O)[C@@H]1N[C@H]1C=C(CO)[C@@H](O)[C@H](O)[C@H]1O` (stereo partly drawn) [Acarbose]: in the test on Sprague-Dawley rats, the “time at which plasma glucose returned to basal” value worked out at 90 min. In addition, the “15 minute glucose excursion from basal” value in the test on Sprague-Dawley rats (mean ± SE, n=6) stood at 34.2 ± 3.5 mg/dL. Also, in the test with Sprague-Dawley rats (versus Control), the “decrease of the 90 minute insulin AUC” value turned out to be 49%. The inhibition at 5 µM in test [5] stood at 4%. Turning to `O=S(=O)([O-])O[C@H]([C@H](O)[C@@H](O)CO)[C@H](O)C[S@+]1C[C@@H](O)[C@H](O)[C@H]1CO` [Compound 95, 1,4-Dideoxy-1,4-[[2S,3R,4R,5S-2,4,5,6-tetrahydroxy-3-(sulfooxy)hexyl]episufonium-ylidene]-D-arabinitol], the “inhibitory activity” value in test [1] is given as “active”.

`O=S(=O)(O)OC(C(O)CN1CC(O)C(O)C1CO)C(O)C(O)CO` (single isomer, unassigned) [Compound 196]: in test [1], the Ki was determined as 5 µM. The same measure, in the same setting: then `O=S(=O)([O-])O[C@@H]([C@H](O)CO)[C@H](O)C[S@+]1C[C@@H](O)[C@H](O)[C@H]1CO` [Compound 97, 1,4-Dideoxy-1,4-[[2S,3S,4R-2,4,5-trihydroxy-3-(sulfooxy)pentyl]episufonium-ylidene]-D-arabinitol], with 0.17 µM.

With `O=S(=O)([O-])O[C@H](CO)[C@@H](O)C[S@+]1C[C@@H](O)[C@H](O)[C@H]1CO`, the Ki in test [2] was 1060 µM; in test [3] (setting [6]) it was greater than 5000 µM; in test [4] (setting [7]), greater than 5000 µM. Turning to `O=S(=O)([O-])O[C@@H](CO)[C@H](O)C[S@+]1C[C@@H](O)[C@@H](O)[C@H]1CO` [Compound 233, 1,4-Dideoxy-1,4-[[(2S,3S)-2,4-dihydroxy-3-(sulfooxy)butyl]-(S)-episulfoniumylidene]-D-lyxitol Inner Salt], in test [1], the “inhibitory activity” value is listed as “not effective inhibitors”. Turning to `O=S(=O)([O-])O[C@@H](CO)[C@H](O)C[S@+]1C[C@H](O)[C@@H](O)[C@H]1CO`, the figures for the Ki in test [2], in test [3] (setting [6]) and in test [4] (setting [7]) were greater than 5000 µM, 52 µM and 109 µM, respectively. With `O=S(=O)([O-])O[C@@H]([C@H](O)[C@@H](O)CO)[C@H](O)C[S@+]1C[C@@H](O)[C@H](O)[C@H]1CO` [Compound 96, 1,4-Dideoxy-1,4-[[2S,3S,4R,5S-2,4,5,6-tetrahydroxy-3-(sulfooxy)hexyl]episufonium-ylidene]-D-arabinitol], in test [1], the “inhibitory activity” value is recorded as “active”. In the case of `O=S(=O)(O)OC(C(O)CN1CC(O)C(O)C1CO)C(O)C(O)CO` (single isomer, unassigned) [Compound 255], the IC50 in test [1] was found to be 30 µM. For `O=S(=O)(O)O[C@@H](CO)[C@H](O)CN1C[C@H](O)[C@@H](O)[C@H]1CO`, the inhibition constant Ki in test [2] (read-out: Ki GA (Glucoamylase)) is greater than 30000 µM; in test [3] (setting [6]), greater than 5000 µM; in test [4] (setting [7]), greater than 5000 µM. `OC1C[S+]2CCCC2[C@@H](O)C1O` (stereo partly drawn): the Ki in test [2] (read-out: Ki GA (Glucoamylase)) is 1320 µM; in test [3] (setting [6]) it was greater than 5000 µM; in test [4] (setting [7]), greater than 5000 µM. In the case of `O=S(=O)(O)OC(C(O)CN1CC(O)C(O)C1CO)C(O)C(O)CO` (single isomer, unassigned) [Compound 252], in test [1], the IC50 came to 100 µM. For `O=S(=O)([O-])OC(C(O)C[S+]1CC(O)C(O)C1CO)C(O)C(O)CO` [Compound 192, 1,4-Dideoxy-1,4-[[(2R,3S,4R,5R)-2,4,5,6-tetrahydroxy-3-(sulfooxy)hexyl]-episulfoniumylidene]-D-arabinitol Inner Salt], the “inhibitory activity” value in test [1] is given as “not active”. On to `O=S(=O)([O-])O[C@H](CO)[C@@H](O)C[Se@+]1C[C@@H](O)[C@H](O)[C@H]1CO`, for which the Ki was greater than 9000 µM in test [2] (read-out: Ki GA (Glucoamylase)), greater than 5000 µM in test [3] and greater than 5000 µM in test [4].

As to `O=S(=O)([O-])O[C@@H]([C@H](O)C[S@+]1C[C@@H](O)[C@H](O)[C@H]1CO)[C@@H](O)CO` [Compound 94, 1,4-Dideoxy-1,4-[[2S,3R,4S-2,4,5-trihydroxy-3-(sulfooxy)pentyl]episufonium-ylidene]-D-arabinitol], the “inhibitory activity” value in test [1] is reported as “did not inhibit”.

Usually Ki stands for the equilibrium dissociation constant of an inhibitor or competing ligand from its target. As a reminder, the inhibition is the drop in the measured response relative to a control, in per cent. For orientation: IC50 means the concentration that gives 50% inhibition.

The values above are taken from patent US8389565B2, “Glycosidase inhibitors and methods of synthesizing same” (Simon Fraser University, priority 2000, dated 2013).
